Assay results: patent US10428081B2, “EGFR inhibitor, preparation method and use thereof” (Shanghai Hansoh Biomedical Co., Ltd., priority 2014, dated 2019)

Tests used:
A431 cells = experiment: Inhibition of A431 cell proliferation (CellTiter-Glo); format: cell-based; conditions: Homo sapiens, A-431, 72 h, read-out: EGFR IC50 (nM) A431
Method: 4. Experiment on the Inhibition of A431 Cell Proliferation
In this experiment, the inhibitory effect of the compounds on A431 cell proliferation was tested by a CellTiter-Glo method, and the half maximal inhibitory concentration (IC50) of the compounds on the activity of cell proliferation was determined.
The culture plate was incubated in the incubator for 16 to 24 hours (37° C., 5% CO2).
(§1) 2) Different concentrations of the test compound in a gradient dilution were added to the cells in the culture plate. The culture plate was incubated in an incubator for 72 hours (37° C., 5% CO2).
3) 50 to 100 μL of CellTiter-Glo reagent was added to each well. Then the culture plate was shaken for 10 minutes, and left to stand at room temperature for 10 minutes.
(§2) 4) The chemiluminescence signal values of each plate were determined by a microplate reader.
5) The inhibition rates were calculated according to the chemiluminescence signal values. 6) The IC50 of the compound was obtained by curve fitting according to the inhibition rates at different concentrations.

NCI-H1975 cells = experiment: Inhibition of NCI-H1975 cell proliferation (CellTiter-Glo); format: cell-based; conditions: for IC50: Homo sapiens, NCI-H1975, 72 h, NCI-H1975 cell proliferation, 72 hours, CellTiter-Glo, read-out: EGFR IC50 (nM) H1975; for Selectivity of wild-type/mutant-type: ratio A431 IC50 / H1975 IC50, cells
Method: 3. Experiment on the Inhibition of NCI-H1975 Cell Proliferation
In this experiment, the inhibitory effect of the compounds on NCI-H1975 cell proliferation was tested by a CellTiter-Glo method, and the half maximal inhibitory concentration (IC50) of the compounds on the activity of cell proliferation was determined.
The culture plate was incubated in an incubator for 16 to 24 hours (37° C., 5% CO2).
as §1
3) 50 to 100 μL of CellTiter-Glo reagent was added to each well. Then, the culture plate was shaken for 10 minutes, and left to stand at room temperature for 10 minutes.
as §2
5) The inhibition rates were calculated according to the chemiluminescence signal values.
6) The IC50 of the compound was obtained by curve fitting according to the inhibition rates at different concentrations.

wild-type EGFR enzyme = wild-type EGFR enzyme (Homo sapiens, UniProt P00533); experiment: Enzymologic experiment of wild-type (WT) EGFR (TR-FRET); format: biochemical; conditions: ATP 0.1 to 5 uM
Method: 2. Enzymologic Experiment of Wild-Type (WT) EGFR
In this experiment, the inhibitory effect of compounds on wild-type EGFR enzyme was tested by a fluorescence resonance energy transfer (TR-FRET) method, and the half maximal inhibitory concentration IC50 of the compounds on enzymatic activity was determined.
1) 1 to 5 μL of wild-type EGFR enzyme solution was added to a 384-well plate, and the final concentration of the enzyme was 0.1 to 1 nM.
(§3) 2) 1 to 5 μL of diluted solution in gradient of the compound was added.
(§4) 3) The mixture was incubated for 10 minutes at room temperature.
(§5) 6) 5 μL of EDTA stop solution was added to terminate the reaction for 5 minutes.
7) 5 μL of a test solution containing the labeled antibody was added, and the mixture was incubated at room temperature for 1 hour.
9) The inhibition rates were calculated from the fluorescence signal values.
(§6) 10) The IC50 of the compound was obtained by curve fitting according to the inhibition rates at different concentrations.

[1] = target: exon 20 T790M mutant-type EGFR enzyme (Homo sapiens, UniProt P00533, T790M); experiment: Enzymologic experiment of T790M mutant-type EGFR (TR-FRET); format: biochemical; conditions: for IC50: T790M EGFR enzyme, TR-FRET, ATP 1 to 10 uM; for Selectivity of wild-type/mutant-type: ratio WT IC50 / T790M IC50, enzyme
Method: as §3, §4, §5
7) […] of a test solution containing the labeled antibody was added, and the mixture was incubated at room temperature for 1 hour.
9) The inhibition rates were calculated according to the fluorescence signal values.
as §6

exon 20 T790M mutant-type EGFR enzyme, sequence (P00533 25-1210 T790M): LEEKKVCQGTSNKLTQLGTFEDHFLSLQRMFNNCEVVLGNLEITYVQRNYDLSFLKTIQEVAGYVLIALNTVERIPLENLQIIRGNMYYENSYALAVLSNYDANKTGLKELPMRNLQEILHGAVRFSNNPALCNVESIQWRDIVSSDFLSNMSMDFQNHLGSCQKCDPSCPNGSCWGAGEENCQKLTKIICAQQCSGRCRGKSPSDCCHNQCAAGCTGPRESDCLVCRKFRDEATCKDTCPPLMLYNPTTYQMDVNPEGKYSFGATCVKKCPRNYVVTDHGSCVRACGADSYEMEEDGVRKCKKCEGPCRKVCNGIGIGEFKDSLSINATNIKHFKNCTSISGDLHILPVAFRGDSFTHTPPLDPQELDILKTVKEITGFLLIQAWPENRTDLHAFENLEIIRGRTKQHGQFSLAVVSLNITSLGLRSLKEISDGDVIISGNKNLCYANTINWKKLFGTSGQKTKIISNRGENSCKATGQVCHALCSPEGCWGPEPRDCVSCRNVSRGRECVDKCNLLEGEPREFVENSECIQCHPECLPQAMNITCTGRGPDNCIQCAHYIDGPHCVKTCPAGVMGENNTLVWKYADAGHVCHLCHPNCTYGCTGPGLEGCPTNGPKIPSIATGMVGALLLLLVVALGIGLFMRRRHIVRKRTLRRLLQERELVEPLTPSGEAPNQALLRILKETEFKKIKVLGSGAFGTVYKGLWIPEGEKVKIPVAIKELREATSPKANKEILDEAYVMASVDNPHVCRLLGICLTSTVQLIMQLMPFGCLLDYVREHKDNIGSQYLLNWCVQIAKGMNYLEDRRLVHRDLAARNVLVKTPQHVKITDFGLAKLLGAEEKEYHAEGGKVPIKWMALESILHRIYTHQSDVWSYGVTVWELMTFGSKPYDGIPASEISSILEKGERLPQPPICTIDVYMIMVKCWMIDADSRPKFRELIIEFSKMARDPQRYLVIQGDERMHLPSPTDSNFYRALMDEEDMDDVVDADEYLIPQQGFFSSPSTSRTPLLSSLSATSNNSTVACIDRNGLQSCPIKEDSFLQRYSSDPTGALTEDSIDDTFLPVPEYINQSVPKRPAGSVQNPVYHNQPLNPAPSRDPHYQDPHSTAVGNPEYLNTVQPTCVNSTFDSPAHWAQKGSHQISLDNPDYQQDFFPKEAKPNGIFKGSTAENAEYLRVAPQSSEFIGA
wild-type EGFR enzyme, sequence (P00533 25-1210): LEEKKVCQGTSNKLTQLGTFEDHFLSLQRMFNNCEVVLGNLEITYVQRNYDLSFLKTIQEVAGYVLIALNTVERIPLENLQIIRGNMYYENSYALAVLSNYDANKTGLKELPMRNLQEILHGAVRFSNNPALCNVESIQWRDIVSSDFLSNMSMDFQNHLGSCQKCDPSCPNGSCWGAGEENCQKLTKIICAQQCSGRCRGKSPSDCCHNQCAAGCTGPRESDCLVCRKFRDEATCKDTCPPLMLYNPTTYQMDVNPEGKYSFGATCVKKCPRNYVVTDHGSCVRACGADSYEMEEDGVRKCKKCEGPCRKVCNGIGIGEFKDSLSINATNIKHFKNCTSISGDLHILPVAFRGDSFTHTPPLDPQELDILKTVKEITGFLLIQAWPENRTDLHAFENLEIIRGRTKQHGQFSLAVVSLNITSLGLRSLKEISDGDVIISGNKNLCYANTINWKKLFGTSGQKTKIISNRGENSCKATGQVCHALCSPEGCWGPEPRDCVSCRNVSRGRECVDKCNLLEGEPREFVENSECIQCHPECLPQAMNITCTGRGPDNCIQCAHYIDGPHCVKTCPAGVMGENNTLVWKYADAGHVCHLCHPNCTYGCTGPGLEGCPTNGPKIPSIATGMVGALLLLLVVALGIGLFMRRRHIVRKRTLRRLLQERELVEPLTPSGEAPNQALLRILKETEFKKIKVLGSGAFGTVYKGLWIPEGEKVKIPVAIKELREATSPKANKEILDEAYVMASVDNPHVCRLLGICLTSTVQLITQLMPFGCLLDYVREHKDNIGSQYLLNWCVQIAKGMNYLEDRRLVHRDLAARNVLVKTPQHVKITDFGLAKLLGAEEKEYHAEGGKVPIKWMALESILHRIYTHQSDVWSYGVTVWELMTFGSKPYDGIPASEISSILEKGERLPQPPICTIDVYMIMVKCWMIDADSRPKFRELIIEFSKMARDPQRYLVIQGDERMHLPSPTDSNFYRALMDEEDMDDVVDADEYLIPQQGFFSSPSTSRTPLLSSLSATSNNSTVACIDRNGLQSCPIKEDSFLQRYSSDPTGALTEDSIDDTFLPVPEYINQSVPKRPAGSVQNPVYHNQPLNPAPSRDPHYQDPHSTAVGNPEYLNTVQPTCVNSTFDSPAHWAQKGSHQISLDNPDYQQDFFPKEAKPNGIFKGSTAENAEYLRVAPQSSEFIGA

SMILES	IC50 (A431 cells) [nM]	IC50 (NCI-H1975 cells) [nM]	Selectivity of wild-type/mutant-type (NCI-H1975 cells)	IC50 (wild-type EGFR enzyme) [nM]	IC50 [1] [nM]	Selectivity of wild-type/mutant-type [1]
C=CC(=O)Nc1cc(Nc2nccc(-c3cn(C)c4ccccc34)n2)c(OC(F)F)cc1N1CCN(C)CC1 [Example 2, N-(4-(difluoromethoxy)-5-((4-(1-methyl-1H-indol-3-yl)pyrimidin-2-yl)amino)-2-(4-methylpiperazine-1-yl)phenyl)acrylamide]	224	1.36	164	143	9.26	15
C=CC(=O)Nc1cc(Nc2nccc(-c3cn(C)c4cc(OC)ccc34)n2)c(OC(F)F)cc1N(C)CCN(C)C [Example 4, N-(4-(difluoromethoxy)-2-((2-(dimethylamino)ethyl)(methyl)amino)-5-((4-(6-methoxy-1-methyl-1H-indol-3-yl)pyrimidin-2-yl)amino)phenyl)acrylamide]	158	10	15.78	6.41	0.39	16.3
C=CC(=O)Nc1cc(Nc2ncc(Cl)c(-c3cn(C)c4ccccc34)n2)c(OC(F)F)cc1N(C)CCN(C)C [Example 5, N-(5-((5-chloro-4-(1-methyl-1H-indol-3-yl)pyrimidin-2-yl)amino)-4-(difluoromethoxy)-2-((2-(dimethylamino)ethyl)(methyl)amino)phenyl)acrylamide]	212	5.9	36	0.8	0.32	2.5
C=CC(=O)Nc1cc(Nc2nccc(-c3cn(CCO)c4ccccc34)n2)c(OC(F)F)cc1N(C)CCN(C)C [Example 6, N-(4-(difluoromethoxy)-2-((2-(dimethylamino)ethyl)(methyl)amino)-5-((4-(1-(2-hydroxyethyl)-1H-indol-3-yl)pyrimidin-2-yl)amino)phenyl)acrylamide]	208	2.2	–	1.54	–	–
C=CC(=O)Nc1cc(Nc2nccc(-c3cn(C(C)=O)c4ccccc34)n2)c(OC(F)F)cc1N(C)CCN(C)C [Example 7, N-(5-((4-(1-acetyl-1H-indol-3-yl)pyrimidin-2-yl)amino)-4-(difluoromethoxy)-2-((2-(dimethylamino)ethyl)(methyl)amino)phenyl)acrylamide]	192	15.8	–	15.5	–	–
C=CC(=O)Nc1cc(Nc2nccc(-c3c[nH]c4ccccc34)n2)c(OC(F)F)cc1N(C)CCN(C)C [Example 8, N-(5-((4-(1H-indol-3-yl)pyrimidin-2-yl)amino)-4-(difluoromethoxy)-2-((2-(dimethylamino)ethyl)(methyl)amino)phenyl)acrylamide]	56.2	5.21	10.8	3.64	0.42	8.8
C=CC(=O)Nc1cc(Nc2nccc(-n3cnc4ccc(C#N)cc43)n2)c(OC)cc1N(C)CCN(C)C [Example 62, N-(5-((4-(6-cyano-1H-benzo[d]imidazol-1-yl)pyrimidin-2-yl)amino)-2-((2-(dimethylamino)ethyl)(methyl)amino)-4-methoxyphenyl)acrylamide]	–	26.3	–	26.4	8.32	3.18
C=CC(=O)Nc1cc(Nc2nccc(-c3cn(C)c4c(F)cc(F)cc34)n2)c(OC)cc1N(C)CCN(C)C [Example 89, N-(5-((4-(5,7-difluoro-1-methyl-1H-indol-3-yl)pyrimidin-2-yl)amino)-2-((2-(dimethylamino)ethyl)(methyl)amino)-4-methoxyphenyl)acrylamide]	–	112	–	34.6	8.57	4.04
C#Cc1ccc2c(-c3ccnc(Nc4cc(NC(=O)C=C)c(N(C)CCN(C)C)cc4OC)n3)cn(C)c2c1 [Example 95, N-(2-((2-(dimethylamino)ethyl)(methyl)amino)-5-((4-(6-ethynyl-1-methyl-1H-indol-3-yl)pyrimidin-2-yl)amino)-4-methoxyphenyl)acrylamide]	–	10.9	–	5.35	0.51	–
C=CC(=O)Nc1cc(Nc2ncc(Cl)c(-c3cn(C4CC4)c4ccccc34)n2)c(OC)cc1N(C)CCN(C)C [Example 100, N-(5-((5-chloro-4-(1-cyclopropyl-1H-indol-3-yl)pyrimidin-2-yl)amino)-2-((2-(dimethylamino)ethyl)(methyl)amino)-4-methoxyphenyl)acrylamide]	350	8.72	–	–	–	–
C=CC(=O)Nc1cc(Nc2nccc(-c3nn(C4CC4)c4ccccc34)n2)c(OC)cc1N(C)CCN(C)C [Example 119, N-(5-((4-(1-cyclopropyl-1H-indazol-3-yl)pyrimidin-2-yl)amino)-2-((2-(dimethylamino)ethyl)(methyl)amino)-4-methoxyphenyl)acrylamide]	–	2.32	–	4.34	0.47	9.23
C=CC(=O)Nc1cc(Nc2nccc(-c3cn(C4CC4)c4ccccc34)n2)c(OC)cc1N(C)CCN1CCOCC1 [Example 124, N-(5-((4-(1-cyclopropyl-1H-indol-3-yl)pyrimidin-2-yl)amino)-4-methoxy-2-(methyl(2-morpholinoethyl)amino)phenyl)acrylamide]	–	30.8	–	190	4.18	45.43
C=CCn1cc(-c2ccnc(Nc3cc(NC(=O)C=C)c(N(C)CCNC)cc3OC)n2)c2ccccc21 [Example 126, N-(5-((4-(1-allyl-1H-indol-3-yl)pyrimidin-2-yl)amino)-4-methoxy-2-(methyl(2-(methylamino)ethyl)amino)phenyl)acrylamide]	–	34	–	15.4	1.51	10.17
C=CC(=O)Nc1cc(Nc2ncc(Cl)c(-c3cn(C4COC4)c4ccccc34)n2)c(OC)cc1N(C)CCN(C)C [Example 130, N-(5-((5-chloro-4-(1-(oxetan-3-yl)-1H-indol-3-yl)pyrimidin-2-yl)amino)-2-((2-(dimethylamino)ethyl)(methyl)amino)-4-methoxyphenyl)acrylamide]	97	–	–	–	–	–
C=CC(=O)Nc1cc(Nc2nccc(-n3nc(C)c4ccc(OC)cc43)n2)c(OC)cc1N(C)CCN1CCCC1 [Example 132, N-(4-methoxy-5-((4-(6-methoxy-3-methyl-1H-indazol-1-yl)pyrimidin-2-yl)amino)-2-(methyl(2-(pyrrolidin-1-yl)ethyl)amino)phenyl)acrylamide]	–	10.1	–	12	1.29	9.34
C=CC(=O)Nc1cc(Nc2nccc(-n3ncc4cc(OCC)ccc43)n2)c(OC)cc1N(C)CCN1CCCC1 [Example 133]	–	6.47	–	7.49	0.69	10.86
C=CC(=O)Nc1cc(Nc2nccc(-n3cnc4ccc(OC)cc43)n2)c(OC)cc1N(C)CCN1CCCC1 [Example 139, N-(4-methoxy-5-((4-(6-methoxy-1H-benzo[d]imidazol-1-yl)pyrimidin-2-yl)amino)-2-(methyl(2-(pyrrolidin-1-yl)ethyl)amino)phenyl)acrylamide]	–	6.28	–	9.16	1.44	6.36
C=CCn1cc(-c2ccnc(Nc3cc(NC(=O)C=C)c(N(C)CCN(C)C)cc3OC)n2)c2ccccc21 [Example 141, N-(5-((4-(1-allyl-1H-indol-3-yl)pyrimidin-2-yl)amino)-2-((2-(dimethylamino)ethyl)(methyl)amino)-4-methoxyphenyl)acrylamide]	–	7.51	–	6.62	0.6	11.1
